# Several values for one entry are separate records, joined by “and”; a condition that tells them apart may be missing. Equal values may be shown once. Where a name gives a salt, the structure may show the parent alone.
# Columns and labels:
# [1] = Blood levels of free naltrexone and free 6-beta-naltrexol following intranasal administration; assay type: in vivo, human; details: for Blood Level 6-beta-Naltrexol-free / Naltrexone-free blood level: individual patients 1-8
# [2] = cited from earlier work
# [3] = Stability of Naltrexone HCl aqueous solution: potency/purity by USP <621> HPLC
# [4] = 0.5 mg/day oral daily for 4 weeks; 42 IBS patients; cited from earlier work
# [5] = in vivo, po; cited from earlier work
# [6] = 4.5 mg/day for 12 weeks; cited from earlier work
# [7] = oral, 0.4 mg or 1.0 mg; 90 patients; cited from earlier work
# [8] = oral 0.002 mg/day with methadone; one patient; cited from earlier work
# [9] = cited from earlier work; remark: listed apart in the source
smiles,measurement,setting,value
"Oc1ccc2c3c1O[C@H]1[C@H](O)CC[C@@]4(O)[C@@H](C2)N(CC2CC2)CC[C@]314 [6-beta-Naltrexol, 6-beta-naltrexol]","Blood Level 6-beta-Naltrexol-free, Avg.","[1]; average of 8 subjects, 15 min",0.138 ng/mL
same,"Blood Level 6-beta-Naltrexol-free, Avg.","[1]; average of 8 subjects, 30 min",0.900 ng/mL
same,"Blood Level 6-beta-Naltrexol-free, Avg.","[1]; average of 8 subjects, 60 min",1.588 ng/mL
same,"Blood Level 6-beta-Naltrexol-free, Avg.","[1]; average of 8 subjects, 120 min",2.438 ng/mL
same,Blood Level 6-beta-Naltrexol-free,[1]; 15 min after intranasal 1 mL of Example 1 composition,0 ng/mL (7×) and 1.1 ng/mL
same,Blood Level 6-beta-Naltrexol-free,[1]; 30 min,0 ng/mL (3×) and 1 ng/mL (2×) and 1.5 ng/mL and 1.9 ng/mL and 1.8 ng/mL
same,Blood Level 6-beta-Naltrexol-free,[1]; 60 min,1.1 ng/mL and 1.9 ng/mL and 0 ng/mL (2×) and 1.2 ng/mL and 1.6 ng/mL and 2.9 ng/mL and 4 ng/mL
same,Blood Level 6-beta-Naltrexol-free,[1]; 120 min,2.1 ng/mL (2×) and 2.7 ng/mL and 2 ng/mL and 1.8 ng/mL and 1 ng/mL and 3.5 ng/mL and 4.3 ng/mL
"O=C1CC[C@@]2(O)[C@H]3Cc4ccc(O)c5c4[C@@]2(CCN3CC2CC2)[C@H]1O5 [Naltrexone HCl, Naltrexone hydrochloride]",solubility in water,[2],about 100 mg/mL
same,Potency/Purity,"[3]; Stability Test A, 2.00 mg/mL in sterile water, room temperature, ambient light, day 5",99.89%
same,Potency/Purity,"[3]; Stability Test A, day 14",104.12%
same,Potency/Purity,"[3]; Stability Test A, day 31",95.94%
same,Potency/Purity,"[3]; Stability Test A, day 62",107.00%
same,Potency/Purity,"[3]; Stability Test A, day 90",107.09%
same,Potency/Purity,"[3]; Stability Test B, 2.00 mg/mL in sterile water, room temperature, ambient light, day 6",102.04%
same,Potency/Purity,"[3]; Stability Test B, day 15",102.11%
same,Potency/Purity,"[3]; Stability Test B, day 33",101.05%
same,Potency/Purity,"[3]; Stability Test B, day 61",98.49%
same,Potency/Purity,"[3]; Stability Test B, day 90",99.24%
same,Potency/Purity,"[3]; Stability Test B, day 121",98.70%
same,Potency/Purity,"[3]; Stability Test B, day 152",98.56%
same,Potency/Purity,"[3]; Stability Test B, day 180",100.44%
"O=C1CC[C@@]2(O)[C@H]3Cc4ccc(O)c5c4[C@@]2(CCN3CC2CC2)[C@H]1O5 [Naltrexone, naltrexone]",concentration at 15 min,"[1]; both sexes, human, in vivo, 2 mg, average of 8 subjects, 15 min after intranasal administration, read-out: Naltrexone-free blood level, Avg.",3.52 ng/mL
same,concentration at 30 min,"[1]; both sexes, human, in vivo, 2 mg, average of 8 subjects, 30 min, read-out: Naltrexone-free blood level, Avg.",3.66 ng/mL
same,concentration at 60 min,"[1]; both sexes, human, in vivo, 2 mg, average of 8 subjects, 60 min, read-out: Naltrexone-free blood level, Avg.",3.24 ng/mL
same,concentration at 120 min,"[1]; both sexes, human, in vivo, 2 mg, average of 8 subjects, 120 min, read-out: Naltrexone-free blood level, Avg.",1.94 ng/mL
same,Naltrexone-free blood level,[1]; 15 min after intranasal 1 mL of Example 1 composition (2 mg/mL),5.2 ng/mL and 1.4 ng/mL and 4.7 ng/mL and 4.6 ng/mL (2×) and 1.6 ng/mL and 2.1 ng/mL and 4 ng/mL
same,Naltrexone-free blood level,[1]; 30 min after intranasal 1 mL of Example 1 composition,5.1 ng/mL and 1.7 ng/mL and 4.7 ng/mL and 3.8 ng/mL and 2.3 ng/mL and 5.5 ng/mL and 2.8 ng/mL and 3.4 ng/mL
same,Naltrexone-free blood level,[1]; 60 min after intranasal 1 mL of Example 1 composition,4.6 ng/mL and 1.8 ng/mL (2×) and 4.5 ng/mL (2×) and 3.2 ng/mL and 2.6 ng/mL and 2.9 ng/mL
same,Naltrexone-free blood level,[1]; 120 min after intranasal 1 mL of Example 1 composition,2.8 ng/mL and 1.1 ng/mL and 2.9 ng/mL and 2.1 ng/mL (2×) and 1.3 ng/mL and 1.4 ng/mL and 1.8 ng/mL
same,patients with improved global assessment,[4],76%
same,reduction of fibromyalgia symptoms over placebo,[5],greater than 30%
same,"CDAI scores, quality of life indicators, remission rates, inflammatory markers in serum",[6],Statistically significant improvements
same,analgesic effect compared with placebo,[7],significant analgesic effects
same,pain relief,[8],improved pain relief
same,oral bioavailability,"[9]; oral administration, significant first pass metabolism",up to 40%
same,time to peak plasma concentration,[9]; single oral dose,1 to 2 h
same,solubility in water (in words),[2]; in the form of a salt,freely soluble

# Source: patent US20140249172A1 (3B Pharmaceuticals, Inc., priority 2012, published 2014)
